For one test, the system named is HIV-1 (strain IIIB). Put plainly: Antiviral activity assay in MT4 cells (propidium iodide based). It counts as cell-based. The gist of the method:
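MT4 cells infected with HIV-1 IIIB (MOI 100×TCID50, 1 hr, 37°C), diluted 6-fold into wells with serially diluted compound, incubated 5 days. Cells lysed with Nonidet-40; DNA content per well estimated by propidium iodide staining as the viability read-out, with mock-infected controls.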

Test [1] concerns EP13 multi protease inhibitor resistant virus. Put plainly: Anti-viral activity against resistant virus EP13 in MT4 cells. It counts as cell-based, HIV-1. On the procedure:
(§1) Exponentially growing MT4 cells were harvested and centrifuged at 1000 rpm for 10 min in a Jouan centrifuge (model CR 4 12). […] Cell aliquots were infected by the addition of HIV-1 (strain IIIB) diluted to give a viral multiplicity of infection of 100×TCID50. […] Cell infection was allowed to proceed for 1 hr at 37° in a tissue culture incubator with humidified 5% CO2 atmosphere. After the 1 hr incubation the virus/cell suspensions were diluted 6-fold with fresh medium, and 125 μl of the cell suspension was added to each well of the plate containing pre-diluted compound. Plates were then placed in a tissue culture incubator with humidified 5% CO2 for 5 days. At the end of the incubation period, 27 μl of 5% Nonidet-40 was added to each well of the incubation plate. After thorough mixing with a Costar multitip pipetter, 60 μl of the mixture was transferred to filter-bottomed 96-well plates. The plates were analyzed in an automated assay instrument (Screen Machine, Idexx Laboratories). The assay makes use of a propidium iodide dye to estimate the DNA content of each well.
(§2) Anti-Viral Activity Against Resistant Viruses
EP13 and DS45701, two multi protease inhibitor resistant viruses were used to assess potency against mutant viruses. These viruses contain the following mutations relative to the consensus sequence of wild type virus:
EP13: Protease amino acid sequence: M46I, L63P, A71V, V82F/L, I84V; No reverse transcriptase mutations.

In test [2] the test system is D545701-14 multi protease inhibitor resistant virus. In words: Anti-viral activity against resistant virus D545701-14 in MT4 cells. It counts as cell-based, HIV-1. On the procedure: as §1, §2
EP13 and DS45701, two multi protease inhibitor resistant viruses were used to assess potency against mutant viruses. These viruses contain the following mutations relative to the consensus sequence of wild type virus: […]

Setting [3] is: wild type HIV-1 virus, MT4 cells, read-out: Wildtype virus - IC50.
Where [4] appears, read: EP13 multi protease inhibitor resistant virus, MT4 cells, read-out: EP13 mutant IC50.
The mark [5] stands for this setting: D545701-14 multi protease inhibitor resistant virus, MT4 cells, read-out: D545701-14 mutant - IC50.
Setting [6] is: Human immunodeficiency virus 1, IIIB, wild type HIV-1 virus, MT4 cells, read-out: Wildtype virus - IC50.
Where [7] appears, read: Human immunodeficiency virus 1, MT4, read-out: EP13 mutant IC50, EP13 multi protease inhibitor resistant virus, MT4 cells.
[8] abbreviates: Human immunodeficiency virus 1, MT4, read-out: D545701-14 mutant - IC50, D545701-14 multi protease inhibitor resistant virus, MT4 cells.
The mark [9] stands for this setting: Human immunodeficiency virus 1, MT4, read-out: Reference data for protease inhibitors (EP13), EP13 mutant virus.
[10] abbreviates: Human immunodeficiency virus 1, MT4, read-out: Reference data for protease inhibitors (D545701-14), D545701-14 mutant virus.

This note sets out measurements from US8455497B2, “Inhibitors of aspartyl protease” (Vertex Pharmaceuticals Incorporated, priority 1999, dated 2013).

Where two headings read alike, the source gives them in different places. Some results are limits rather than exact numbers.

`CC(C)CN(C[C@@H](O)[C@H](Cc1ccc(OCCNC(=O)N(C)C)cc1)NC(=O)O[C@H]1CO[C@H]2OCC[C@H]21)S(=O)(=O)c1ccc2c(c1)OCO2` [Compound 253]: the results for the IC50 (in the test with HIV-1 (strain IIIB) (setting [3]); in test [1] (setting [4]); in test [2] (setting [5])) were 10 to 100 nM, 1 to 10 nM and 1 to 10 nM, respectively.
As for `CC(C)CN(C[C@@H](O)[C@H](Cc1ccc(OCc2ccc(-c3ccccc3C#N)cc2)cc1)NC(=O)O[C@H]1CO[C@H]2OCC[C@H]21)S(=O)(=O)c1ccc2c(c1)OCO2` [Compound 392, (3R,3aS,6aR)-hexahydrofuro[2,3-b]furan-3-yl (1S,2R)-3-[(1,3-benzodioxol-5-ylsulfonyl)(isobutyl)amino]-1-{4-[(2′-cyano[1,1-biphenyl]-4-yl)methoxy]benzyl}-2-hydroxypropylcarbamate], the IC50 (with HIV-1 (strain IIIB) (setting [6]); in test [1] (setting [7]); in test [2] (setting [8])) was 1 to 10 nM in each case.
With `Cc1cc(COc2ccc(C[C@H](NC(=O)O[C@H]3CO[C@H]4OCC[C@H]43)[C@H](O)CN(CC(C)C)S(=O)(=O)c3ccc4c(c3)OCO4)cc2)no1` [Compound 55, Bis-THF Methylenedioxybenzenesulfonamide 3-methyl-5-methylisoxazole Tethered Product], the IC50 with HIV-1 (strain IIIB) (Human immunodeficiency virus 1, MT4, 120 h, MT-4 cells, HIV-1 strain IIIB, 5 days, read-out: IC50 (Antiviral Activity of Compounds of the Invention)) is less than 1 nM; in test [1] (setting [7]), 1 to 10 nM; in test [2] (setting [8]), 1 to 10 nM.
With `CC(=O)NCCCOc1ccc(C[C@H](NC(=O)O[C@H]2CO[C@H]3OCC[C@H]32)[C@H](O)CN(CC(C)C)S(=O)(=O)c2ccc3c(c2)OCO3)cc1` [Compound 229], the IC50 lay within 10 to 100 nM in the test with HIV-1 (strain IIIB) (setting [3]), 1 to 10 nM in test [1] (setting [4]) and 1 to 10 nM in test [2] (setting [5]).
Turning to `CC(C)CN(C[C@@H](O)[C@H](Cc1ccc(OCc2ccccc2CS(=O)(=O)c2ccccc2)cc1)NC(=O)O[C@H]1CO[C@H]2OCC[C@H]21)S(=O)(=O)c1ccc2c(c1)OCO2` [Compound 388, (3R,3aS,6aR)-hexahydrofuro[2,3-b]furan-3-yl (1S,2R)-3-[(1,3-benzodioxol-5-ylsulfonyl)(isobutyl)amino]-2-hydroxy-1-[4-{(2-[(phenylsulfonyl)methyl]benzyl}oxy)benzyl]propylcarbamate], the IC50 (in the test on HIV-1 (strain IIIB) (setting [6]); in test [1] (setting [7]); in test [2] (setting [8])) was 1 to 10 nM throughout.
`CC(C)CN(C[C@@H](O)[C@@H](N)Cc1ccc(OCc2ccccc2)cc1)S(=O)(=O)c1ccc2c(c1)OCO2` [Compound 308, N-{(2R,3S)-3-Amino-4-[4-(benzyloxy)phenyl]-2-hydroxybutyl}-N-isobutyl-1,3-benzodioxole-5-sulfonamide]: the values for the IC50 (in the test with HIV-1 (strain IIIB) (setting [6]); in test [1] (setting [7]); in test [2] (setting [8])) were 10 to 100 nM, 1 to 10 nM and 1 to 10 nM, respectively.
On to `CC(C)CN(C[C@@H](O)[C@H](Cc1ccc(OCc2cccc(C#N)c2)cc1)NC(=O)O[C@H]1CO[C@H]2OCC[C@H]21)S(=O)(=O)c1cccc(N)c1` [Compound 289], for which the IC50 (in the test on HIV-1 (strain IIIB) (setting [6]); in test [1] (setting [7]); in test [2] (setting [8])) was 1 to 10 nM in each case.
On to `COc1ccc(CCOc2ccc(C[C@H](NC(=O)O[C@H]3CO[C@H]4OCC[C@H]43)[C@H](O)CN(CC(C)C)S(=O)(=O)c3ccc4c(c3)OCO4)cc2)cc1` [Compound 206], for which the IC50 lay in the range of 1 to 10 nM with HIV-1 (strain IIIB) (setting [3]), 10 to 100 nM in test [1] (setting [4]) and 10 to 100 nM in test [2] (setting [5]).
Consider `Cc1noc(C)c1-c1nc(COc2ccc(C[C@H](NC(=O)O[C@H]3CO[C@H]4OCC[C@H]43)[C@H](O)CN(CC(C)C)S(=O)(=O)c3ccc4c(c3)OCO4)cc2)no1` [Compound 389, (3R,3aS,6aR)-hexahydrofuro[2,3-b]furan-3-yl (1S,2R)-3-[(1,3-benzodioxol-5-ylsulfonyl)(isobutyl)amino]-1-(4-{[5-(3,5-dimethyl-4-isoxazolyl)-1,2,4-oxadiazol-3-yl]methoxy}benzyl)-2-hydroxypropylcarbamate], for which the IC50 (in the test on HIV-1 (strain IIIB) (setting [6]); in test [1] (setting [7]); in test [2] (setting [8])) was 1 to 10 nM in each case.
Regarding `CC(=O)Oc1ccc(S(=O)(=O)N(CC(C)C)C[C@@H](O)[C@H](Cc2ccc(OCc3ccccn3)cc2)NC(=O)O[C@H]2COC3OCC[C@H]32)cc1C` (some centres unmarked) [Compound 294], the IC50 (in the test with HIV-1 (strain IIIB) (setting [6]); in test [1] (setting [7]); in test [2] (setting [8])) was 1 to 10 nM throughout.
In the case of `CC(C)CN(C[C@@H](O)[C@H](Cc1ccc(OCc2csc3ccccc23)cc1)NC(=O)O[C@H]1CO[C@H]2OCC[C@H]21)S(=O)(=O)c1ccc2c(c1)OCO2` [Compound 387, (3R,3aS,6aR)-hexahydrofuro[2,3-b]furan-3-yl (1S,2R)-3-[(1,3-benzodioxol-5-ylsulfonyl)(isobutyl)amino]-1-[4-(1-benzothien-3-ylmethoxy)benzyl]-2-hydroxypropylcarbamate], the IC50 (in the test with HIV-1 (strain IIIB) (setting [6]); in test [1] (setting [7]); in test [2] (setting [8])) was 1 to 10 nM each time.
For `CC(C)CN(C[C@@H](O)[C@H](Cc1ccc(OCCCc2ccccc2)cc1)NC(=O)O[C@H]1CO[C@H]2OCC[C@H]21)S(=O)(=O)c1ccc2c(c1)OCO2` [Compound 353, (3R,3aS,6aR)hexahydrofuro[2,3-b]furan-3-yl (1S,2R)-3-[(1,3-benzodioxol-5-ylsulfonyl)(isobutyl)amino]-2-hydroxy-1-[4-([3-phenylpropyl]oxy)benzyl]propylcarbamate], the IC50 in test [1] (read-out: EP13 mutant IC50, EP13 multi protease inhibitor resistant virus, MT4 cells) was less than 1 nM; in test [2] (read-out: D545701-14 mutant - IC50, D545701-14 multi protease inhibitor resistant virus, MT4 cells), 1 to 10 nM.
`CC(C)CN(C[C@@H](O)[C@H](Cc1ccc(OCCCNc2ccc(C(F)(F)F)cn2)cc1)NC(=O)O[C@H]1CO[C@H]2OCC[C@H]21)S(=O)(=O)c1ccc2c(c1)OCO2` [Compound 272, (3R,3aS,6aR)-hexahydrofuro[2,3-b]furan-3-yl (1S,2R)-3-[(1,3-benzodioxol-5-ylsulfonyl)(isobutyl)amino]-2-hydroxy-1-[4-(3-{[5-(trifluoromethyl)-2-pyridinyl]amino}propoxy)benzyl]propylcarbamate]: the IC50 (in the test with HIV-1 (strain IIIB) (setting [6]); in test [1] (setting [7]); in test [2] (setting [8])) was 1 to 10 nM throughout.
`CC(C)CN(C[C@@H](O)[C@H](Cc1ccc(OC(=N)N(C)C)cc1)NC(=O)O[C@H]1CO[C@H]2OCC[C@H]21)S(=O)(=O)c1ccc2c(c1)OCO2` [Compound 331, (3R,3aS,6aR)-Hexahydrofuro[2,3-b]furan-3-yl (1S,2R)-3-[(1,3-benzodioxol-5-ylsulfonyl)(isobutyl)amino]-1-{4-[(dimethylamino) (imino)methoxy]benzyl}-2-hydroxypropylcarbamate]: the IC50 (with HIV-1 (strain IIIB) (setting [6]); in test [1] (setting [7]); in test [2] (setting [8])) was 10 to 100 nM throughout.
With `CC(C)CN(C[C@@H](O)[C@H](Cc1ccc(OCC#N)cc1)NC(=O)O[C@H]1CO[C@H]2OCC[C@H]21)S(=O)(=O)c1ccc2c(c1)OCO2` [Compound 393, (3R,3aS,6aR)-hexahydrofuro[2,3-b]furan-3-yl (1S,2R)-3-[(1,3-benzodioxol-5-ylsulfonyl)(isobutyl)amino]-1-[4-(cyanomethoxy)benzyl]-2-hydroxypropylcarbamate], the IC50 (in the test on HIV-1 (strain IIIB) (setting [6]); in test [1] (setting [7]); in test [2] (setting [8])) was 10 to 100 nM in each case.
Turning to `CC(C)c1nc(CN(C)C(=O)N[C@H](C(=O)N[C@@H](Cc2ccccc2)C[C@H](O)[C@H](Cc2ccccc2)NC(=O)OCc2cncs2)C(C)C)cs1` [Ritonavir, reference compound], the values for the IC50 in test [1] (setting [9]) and in test [2] (setting [10]) were more than 600 nM and more than 10000 nM, respectively.
Taken in the same sequence, the figures for `CC(C)CN(C[C@@H](O)[C@H](Cc1ccccc1)NC(=O)O[C@H]1CCOC1)S(=O)(=O)c1ccc(N)cc1` [Amprenavir, reference compound] were 600 nM and more than 1000 nM.
In the same order, the values of `CC(C)(C)NC(=O)[C@@H]1CN(Cc2cccnc2)CCN1C[C@@H](O)C[C@@H](Cc1ccccc1)C(=O)N[C@H]1c2ccccc2C[C@H]1O` [Indinavir, reference compound] are 560 nM and 700 nM.
